Laboratory results taken from article PMC11206913, “Amoebicidal Effect of COVID Box Molecules against Acanthamoeba: A Study of Cell Death” (Pharmaceuticals, 2024).

Tests used:
[1] = tested on: A. castellanii Neff cysts; assay: Cysticidal activity, alamarBlue method; type: cell-based; conditions: Acanthamoeba castellanii, read-out: IC50 cysticidal effect
Description: (§1) Based on the amoebicidal and cytotoxicity results, the selected compounds, Almitrine and Terconazole, were further investigated on the cyst stage of the various Acanthamoeba strains: A. castellanii Neff, A. griffini, A. polyphaga, A. culbertsoni, and A. castellanii L-10. The cysticidal activity was assessed by the alamarBlue™ method, as described previously. Briefly, in a 96-well plate, a serial dilution of the mentioned drugs was first conducted. Later, cysts were resuspended in PYG medium and were added into each well at a concentration of 5 × 10^4 cysts mL^−1. The plates were examined over a week using an inverted microscope. After 7 days of incubation, the plates were centrifuged at 3000 rpm and the medium was replaced with a new PYG. Finally, 10 μL of alamarBlue^TM Cell Viability Reagent (Biosource, Europe, Nivelles, Belgium) was placed into each well, and the plates were incubated at 28 °C with slight agitation. The emitted fluorescence was measured after 144 h.

Solubility (remark) = type: physicochemical; conditions: reason for discarding
A. castellanii L10 cysts = assay: Cysticidal activity, alamarBlue method; type: cell-based, Acanthamoeba castellanii L10; conditions: Acanthamoeba castellanii, read-out: IC50 cysticidal effect
Description: as §1

[2] = tested on: Acanthamoeba culbertsoni trophozoites; assay: Trophocidal activity, alamarBlue assay; type: cell-based; conditions: read-out: IC50 trophocidal effect
Description: (§2) The trophocidal effect of the 160 molecules from the COVID Box was determined using the alamarBlue™ (Life Technologies, Madrid, Spain) assay as previously described with modifications. Briefly, Acanthamoeba castellanii Neff trophozoites were first seeded in triplicate on a 96-well microtiter plate with 99 μL from a stock solution of 5 × 10^4 cells mL^−1. Subsequently, 1 μL of each compound was added to each well to assess the in vitro amoebicidal activity at 10 μM as the final concentration. Finally, 10 µL of alamarBlue™ Cell Viability Reagent (Bioresource, Europe, Nivelles, Belgium) was added into each well. The plates were then incubated for 96 h at 28 °C with a slight agitation. An EnSpire microplate reader (PerkinElmer, Waltham, MA, USA) was used to measure fluorescence at 570/585 nm. Then, the percentage of inhibition value of the tested COVID Box compounds was determined in comparison with the negative control.
(§3) Almitrine and Terconazole were the COVID Box products selected to evaluate the amoebicidal effect against the trophozoite stage of […] strains of Acanthamoeba: A. castellanii Neff, A. griffini, A. polyphaga, A. culbertsoni, and A. castellanii L10. The inhibition concentration 50 (IC50) value was calculated based on the alamarBlue™ assay, as previously mentioned.

A. griffini trophozoites = assay: Trophocidal activity, alamarBlue assay; type: cell-based; conditions: Acanthamoeba griffini, read-out: IC50 trophocidal effect
Description: as §2, §3

[3] = tested on: murine macrophages J774A.1; assay: Cytotoxicity against murine macrophages, alamarBlue; type: cell-based
Description: The cytotoxicity of the COVID Box compounds was evaluated against murine macrophages of the J774A.1 cell line (ATCC TIB-67), as previously described. As mentioned in the trophocidal assay, cells were allowed to adhere on a 96-well plate in 37 °C in a 5% CO2 humidified incubator. Later, a well-defined volume of the compounds was added at an affinal concentration of 10 µM to each well. Fluorescence emitted by the alamarBlue^TM was measured after 24 h of incubation and the percentage inhibition value was determined. The Cytotoxicity Concentration 50 (CC50) value of Almitrine and Terconazole was determined following the same method described previously for the trophocidal effect.

[4] = tested on: Acanthamoeba castellanii L10 trophozoites; assay: Comparative label-free proteomics; type: cell-based; conditions: IC50, 24 h
Description: The proteomic analysis was conducted according to Arbon et al., 2022 [39]. A quantity of 10^6 cells was first incubated with Terconazole at IC50 for 24 h, then treated and untreated cells were centrifuged and washed with PBS. Both groups were prepared in three biological replicates. The assay was conducted as detailed in our previous work. Results were analyzed using STRING free software and GraphPad 9 prism (Supplementary Material File S2).

Naegleria fowleri = tested on: Naegleria fowleri; set-up: method as in PMID 38718717; conditions: previous work of the authors; read-out: IC50 against Naegleria fowleri; cited from earlier work
[5] = tested on: Acanthamoeba culbertsoni trophozoites; assay: Actin staining with phalloidin-TRITC; type: cell-based; conditions: IC90
Description: As in the immunofluorescence staining, cells were first treated with IC90 of Terconazole and fixed with formaldehyde (4%) over a gelatin-precoated coverslip. Later, the cells were permeabilized with Triton (0.1%), followed by a 1 h incubation with phalloidin–tetramethylrhodamine B isothiocyanate (phalloidin-TRITC; Sigma-Aldrich, Madrid, Spain) at room temperature. Cells were finally washed with PBS 1X and mounted using mounting medium with DAPI. Cells were examined by Z-stack imaging using a Leica DMI 4000 B inverted confocal microscope with a 63× objective (Leica Microsystems, Wetzlar, Germany), a 405 nm laser, and a 532 nm laser.

A. polyphaga cysts = assay: Cysticidal activity, alamarBlue method; type: cell-based; conditions: Acanthamoeba polyphaga, read-out: IC50 cysticidal effect
Description: as §1

[6] = tested on: Acanthamoeba culbertsoni trophozoites; assay: ROS generation, CellROX Deep Red staining; type: cell-based; conditions: IC90, 24 h
Description: (§4) Acanthamoeba culbertsoni cells were incubated with IC90 of Terconazole for 24 h. All mean fluorescence intensities were quantified using EVOS M5000 (Life Technologies, Madrid, Spain), processing three different observations in triplicate using an objective (×40), and images of single cells were obtained by a Leica DMI 4000 B inverted confocal microscope with a 63× objective (Leica Microsystems, Germany). All assays were performed in triplicate.
The overproduction of intracellular ROS was measured using the CellROX® Deep red fluorescent probe (Invitrogen, Madrid, Spain).

[7] = tested on: Acanthamoeba culbertsoni trophozoites; assay: Mitochondrial membrane potential, JC-1 dye; type: cell-based; conditions: IC90, 24 h
Description: as §4
Based on the JC-1 state and the emitted fluorescence, we distinguished two sets in the cellular population: live cells emit high red fluorescence and affected cells with collapsed mitochondrial membrane potential emit a higher green fluorescence.

[8] = tested on: A. castellanii L10 trophozoites; assay: Trophocidal activity, alamarBlue assay; type: cell-based; conditions: Acanthamoeba castellanii, read-out: IC50 trophocidal effect
Description: as §2, §3

[9] = tested on: A. polyphaga trophozoites; assay: Trophocidal activity, alamarBlue assay; type: cell-based; conditions: Acanthamoeba polyphaga, read-out: IC50 trophocidal effect
Description: as §2, §3

Acanthamoeba culbertsoni [10] = assay: Plasma membrane permeability, SYTOX Green; type: cell-based; conditions: IC90, 24 h
Description: as §4
The effect of the study drug on the cell’s membrane permeability was assessed using specific DNA staining. SYTOX® Green (Molecular Probes, Invitrogen, Madrid, Spain) is a DNA-specific dye impermeable to the cells, whose fluorescence increases 500× upon fixation to the DNA. Briefly, […] trophozoites were incubated for 24 h with IC90 of the drug solution. Subsequently, the SYTOX® Green dye was added at a final concentration of 1 μM for 15 min in the dark.

Acanthamoeba culbertsoni [11] = assay: Chromatin condensation, Hoechst 33342/PI double stain; type: cell-based; conditions: IC90, 24 h
Description: as §4
A double-stain apoptosis detection kit (Chromatin Condensation/Dead Cell Apoptosis Kit) with Hoechst 33342 and Propidium Iodide (Invitrogen, Madrid, Spain) were used. The experiment was carried out by following the manufacturer’s recommendations.

[12] = tested on: Acanthamoeba culbertsoni trophozoites; assay: Immunofluorescence staining of tubulin; type: cell-based; conditions: IC90, 24 h
Description: Immunofluorescence staining of tubulin was performed according to the manufacturer’s staining procedure (Sigma-Aldrich, Madrid, Spain) with slight modifications. Briefly, cells were treated first with Terconazole at IC90. After 24 h of incubation, 50 µL of treated and untreated cell suspensions was placed on a gelatin precoated coverslip for 30 min. Cells were first fixed with formaldehyde (4%) and later permeabilized with Triton (0.3%) for 10 min. Washed with PBS (3X), cells were treated with 5% BSA in PBS 1X/150 mM sucrose for 30 min and washed with glycine 100 mM. At this stage, the trophozoites were incubated with a monoclonal antibody, Anti-α-Tubulin (1:2000), for 2 h at room temperature. Washed twice with PBS, cells were then incubated with the second antibody labeled with Alexa 594 (1:500; from Thermo Fisher Scientific, Rockford, IL, USA) for an hour at room temperature in darkness. Finally, cells were washed with PBS 1X and mounted using mounting medium with DAPI (Sigma-Aldrich; Madrid, Spain). Three-dimensional and maximum projection imaging of the trophozoites was performed by Z-stack imaging using a Leica DMI 4000 B inverted confocal microscope with LAS X software (Leica DMI 4000 B inverted confocal microscope), a 405 nm laser and a 532 nm laser, and a Leica HCX PL Apo 63× Oil Objective.

Acanthamoeba culbertsoni [13] = assay: ATP assay, CellTiter-Glo; type: cell-based; conditions: IC90, 24 h of treatment
Description: as §4
After 24 h of drug treatment, the intracellular ATP content was measured using a CellTiter-Glo Luminescent Cell Viability Assay (Promega, Madison, WI, USA). The experiment was carried out according to the manufacturer’s instructions, and the luminescence intensity was measured in a white 96-well plate using an EnSpire® Multimode Plate Reader.

Row | Compound | IC50 [1] | solubility (Solubility (remark)) | IC50 (A. castellanii L10 cysts) | IC50 [2] | IC50 (A. griffini trophozoites) | cytotoxicity compared between the two drugs [3] | affected proteins activated [4] | affected proteins downregulated [4] | proteins at least twofold differentially expressed ([4]; of 4566 identified proteins) | IC50 (Naegleria fowleri) | actin distribution (phalloidin-TRITC fluorescence) [5] | IC50 (A. polyphaga cysts) | ROS production (CellROX Deep Red fluorescence) [6] | decrease in the MMP (ratio red/green JC-1 fluorescence) compared to untreated cells [7] | IC50 [8] | IC50 [9] | plasma membrane permeability (SYTOX green fluorescence) (Acanthamoeba culbertsoni [10]) | chromatin condensation (Hoechst/PI staining) (Acanthamoeba culbertsoni [11]) | tubulin network (immunofluorescence) [12] | inhibition in the total ATP level relative to negative control (Acanthamoeba culbertsoni [13])
1 | C=CCNc1nc(NCC=C)nc(N2CCN(C(c3ccc(F)cc3)c3ccc(F)cc3)CC2)n1 [Almitrine] | 51.7 ± 2.13 µM | low solubility | 8.76 ± 0.07 µM | 32.08 ± 0.06 µM | 5.2 ± 0.4 µM | lower cytotoxicity than Terconazole |  |  |  |  |  |  |  |  |  |  |  |  |  | 
2 | CC(C)N1CCN(c2ccc(OCC3COC(Cn4cncn4)(c4ccc(Cl)cc4Cl)O3)cc2)CC1 (stereo not drawn) [Terconazole] | 10.2 ± 2.01 µM |  |  |  |  |  | 20% | 80% | 223 proteins | 3.68 ± 0.61 µM | lower fluorescence than the untreated cells | 2.24 ± 0.5 µM | significantly higher fluorescence than the untreated cells | 50% | 9.07 µM | 4.62 µM | statistically higher green fluorescence than the negative control | presence of intensely bright blue, fluorescent cells | highly reduced cell shape with lower fluorescence | 62.5 ± 2.36%
